According to patent US11857532B2, “Treatment and prediction of therapeutic responses in patients suffering from Friedreich ataxia” (INSERM (Institut National de la Santé et de la Recherche …, priority 2018, dated 2024):

Legend:
Assay type in all cases: cell-based, human
TfR1 [1] = assay: TfR1 palmitoylation assay in cultured skin fibroblasts
Procedure: (§1) Skin fibroblasts were grown in Dulbecco's Modified Eagle Medium (DMEM, Life technologies) medium supplemented with 10% fetal bovine serum (FBS), 2 mM L-glutamine, 2.5 mM pyruvate, 100 μg/ml streptomycin, 100 U/ml penicillin at 37° C. For treatment with ferric ammonium citrate (FAC), 80% confluent cells were incubated for 72 h with or without 100 μM FAC in serum-free DMEM (i.e. Tf free). For drug treatment, 80% confluent cells were incubated in DMEM+10% FBS supplemented with 25 μM artesunate (Sigma) in DMSO for 48 h, 25 μM CoA (Sigma) for 72 h and 5 mM DCA (Sigma) for 72 h.
TfR1 palmitoylation in cultured skin fibroblasts was modified from (Ba et al., 2012). Briefly, cells were lysed on ice in a DTT-free cell lysis buffer and endogenous TfR1 was immunoprecipitated overnight with mouse anti-TfR1 antibody (Life Technologies, 136890) with protein G magnetic beads (BioRad). After washing with PBS, beads were successively incubated 2 h with 50 mM N-ethylmaleimide (NEM) at room temperature, 1 M hydroxylamine and 50 mM HPDP-Biotin (Thermo) in dark for 2 hours. Samples were run in 12% acrylamide gel and biotin-labeled TfR1 level was determined by immunoblotting in non-reducing conditions using Chemidoc technology thanks to a CCD camera (BioRad) and ImageLab software v3.0 (BioRad).

TfR1 [2] = assay: Western blot of TfR1 steady-state level in fibroblasts; conditions: for steady state level of TfR1: CoA 25 μM 72 h, DCA 5 mM 72 h, artesunate 25 μM 48 h
Procedure: as §1
(§2) Cultured skin fibroblasts were harvested on ice by scraping in reducing (2 μM dithiothreitol, DTT, denaturation at 95° C. for 5 min) or non-reducing cell lysis buffer (no DTT, no heat denaturation). Western bot analysis was performed on 20 μg of whole-cell protein extracts or mitochondrial-enriched fractions in 12% acrylamide gel or 4-15% gel gradient. Immunodetections were performed in PBS with 5% or 1% milk, 0.05% Tween20 (SIGMA) using the following antibodies: rabbit anti-SOD1 (Abcam, ab16831), rabbit anti-SOD2 (Abcam, ab13533), mouse anti-TfR1 (Invitrogen, 13-6800), rabbit anti-TfR1 (Abcam, 108985), rabbit anti-ferritin (Abcam, ab75973), rabbit anti-IRP1 (Abcam, ab126595), rabbit anti-IRP2 (Abcam, ab80339), rabbit anti-FBXL5 (Abcam, ab140175), rabbit anti-FDXR (Abcam, 204310), rabbit anti-FXN (Protein tech, 14147-1-AP), rabbit anti-PDH E2 subunit (Abcam, ab172617), rabbit anti-lipoic acid (Abcam, ab58724), goat anti-Biotin (Thermo, 31852), mouse anti-VDAC/Porine (Abcam, ab14734)
(§3) mouse anti-ATP5a (Abcam, ab14748), mouse anti-Vinculin (abeam, ab130007), rabbit anti-TFAM (Proteintech, 19998-1-AP), rabbit ATP8 (Proteintech, 26723-1-AP) and mouse anti-GAPDH antibodies (ab8245). Blots were incubated with fluorescent secondary antibodies (IRDye 800CW/680LT Goat anti-rabbit or anti-mouse IgG (LI-COR)) or HRP-conjugated secondary antibodies (goat anti-rabbit IgG HRP (Abcam), goat anti-mouse IgG HRP (Abcam) or donkey anti-goat IgG HRP (Santa Cruz)) before ECL-based detection (SuperSignal West Dura, Thermo Scientific). Signals captured either with the Odyssey Infrared Imaging System using Image Studio Lite v5.2 (LI-COR Biosciences) or with CDD camera using Image Lab v3.0 (BioRad).

[3] = system: ferritin, FBXL5, SOD2, IRP1-2; assay: Western blot of proteins involved in iron homeostasis and antioxidant defense in fibroblasts; conditions: artesunate 25 μM for 48 h
Procedure: as §1, §2, §3

membrane-bound TfR1 = assay: Imaging flow cytometry (Imagestream) of membrane-bound TfR1 in fibroblasts
Procedure: as §1
Fibroblasts were starved for one hour in FBS-free DMEM medium (i.e. Tf-free), treated with 5 mM EDTA for harvesting them without disrupting TfR1 located at cell surface, as trypsin does, and then labelled with anti-TfR1 antibody at 4° C. to avoid TfR1 internalization. In this condition only membrane-bound TfR1 is quantified. Cell sorting was based on Hoechst-positive signal, allowing to select living cells.
(§4) Total iron contents were measured using a ferrozine-based iron assay modified from (Barbeito et al., 2010). For imaging flow cytometry, fibroblasts were starved for one hour in FBS-free DMEM medium, treated with 5 mM EDTA for harvesting them without disrupting TfR1 located at cell surface, as trypsin does, washed 3 times with cold PBS and then labelled with anti-TfR1 antibodies (A24) (Moura et al., 2004) for 1 h on ice to avoid TfR1 internalization. In this condition, only membrane-bound TfR1 is quantified. Secondary staining was performed using Alexa fluor 488 goat anti-mouse antibody (Life technology) for 30 min on ice. Cells were washed and stained with Hoechst for 5 min in a total volume of 50 μl and acquisitions were directly performed. Cell analysis was based on Hoechst-positive signal, allowing to select living cells. […] Data were acquired using the INSPIRE software (Amnis Corp) and analyzed using the IDEAS™ software (version 6.2 Amnis Corp) on at least 20,000 events. […] Results were expressed as mean pixel intensity value which is the intensity normalized to surface area.

[4] = system: fibroblasts (Tf recycling); assay: Transferrin (Tf) recycling by spinning-disk confocal microscopy in fibroblasts
Procedure: as §1
For Tf recycling, fibroblasts were spread at 30% confluence onto micro-slides glass bottom (IBIDI) 24 h before experiment. Cells were then starved in FBS-free DMEM media for 1 h before add Tf-RED (12.5 μg/mL) for 30 min at 37° C. Cells were washed with PBS and then incubated for in regular media for live-imaging acquisition using spinning disk confocal microscopy (ZEISS Microscopy). Slides were placed un incubation chamber at 37° C. under 5% CO2. At least 20 cells were acquired by condition using 63× oil immersion objective lens with a picture of cell/min during 40 min using Zen software. The nuclear region (NR) was defined using Icy software v1.9. […] PNROI masks were then applied on RED channel by spot detector plugin to obtain quantitative mean fluorescence particle intensity. […]

[5] = system: fibroblasts (cellular iron content); assay: Ferrozine-based iron quantification in fibroblasts; conditions: for iron content: control cells
Procedure: as §1
Total iron contents were measured using a ferrozine-based iron assay modified from (Barbeito et al., 2010). For imaging flow cytometry, fibroblasts were starved for one hour in FBS-free DMEM medium, treated with 5 mM EDTA for harvesting them without disrupting TfR1 located at cell surface, as trypsin does, washed 3 times with cold PBS and then labelled with anti-TfR1 antibodies (A24) (Moura et al., 2004) for 1 h on ice to avoid TfR1 internalization. In this condition, only membrane-bound TfR1 is quantified. Secondary staining was performed using Alexa fluor 488 goat anti-mouse antibody (Life technology) for 30 min on ice. Cells were washed and stained with Hoechst for 5 min in a total volume of 50 μl and acquisitions were directly performed. Cell analysis was based on Hoechst-positive signal, allowing to select living cells. Samples were run on an Imagestream ISX mkII (Amnis Corp, Millipore, Seattle, WA) that combines flow cytometry with detailed cell-imaging and functional studies and a 40× magnification was used for all acquisitions. Data were acquired using the INSPIRE software (Amnis Corp) and analyzed using the IDEAS™ software (version 6.2 Amnis Corp) on at least 20,000 events. Spectral compensation was performed using singly stained samples. A specific mask was designed for analysis of the membrane localization of TfR1. This mask was the result of a full bright field mask minus a 5 pixels erode and 1 pixel dilate bright mask resulting in doughnuts-like mask. Results were expressed as mean pixel intensity value which is the intensity normalized to surface area.

PBMC (iron content) = assay: Ferrozine-based iron quantification in PBMC grown in high iron medium; conditions: 40 h in high iron medium (100 μM FAC), artesunate 25 μM
Procedure: PBMC were isolated from 8 ml blood samples by density centrifugation using Ficoll (GE Healthcare) and grown 2 h in regular DMEM before treatment with 100 μM FAC for different time.
as §4

[6] = FRDA fibroblasts, artesunate 25 μM for 48 h
[7] = control cells, artesunate 25 μM for 48 h

For `C[C@H]1[C@H](OC(=O)CCC(=O)O)O[C@@H]2O[C@@]3(C)CC[C@H]4[C@H](C)CC[C@@H]1[C@@]24OO3` [artesunate, (3R,5aS,6R,8aS,9R,10S,12R,12aR)-Decahydro-3,6,9-trimetyl-3,12-epoxy-12H-pyrano[4,3-j]-1,2-benzodioxepin-10-ol, hydrogen succinate], the “TfR1 palmitoylation relative to controls” value (TfR1 [1]; [6]) was 80 % of controls, the TfR1 palmitoylation (TfR1 [1]; control cells, artesunate treatment) was “slight but non-significant decrease” and the “TfR1 steady-state level relative to control values in artesunate-free medium” value (TfR1 [2]; FRDA fibroblasts, regular DMEM, artesunate 25 μM for 48 h) was 136 % of control values. For the same molecule, the “steady state level of TfR1” value (TfR1 [2]; FRDA fibroblasts) was “significantly decreased”, the TfR1 steady-state level (TfR1 [2]; [7]) was “slight increase” and the “FBXL5 steady state level” value ([3]; FRDA fibroblasts) was “returned to control values”. For the same molecule, the “IRP1-2 steady state levels” value ([3]; FRDA fibroblasts) was “not modified”, the “SOD2 steady state level” value ([3]; FRDA fibroblasts) was “decreased” and the “ferritin steady state level” value ([3]; FRDA fibroblasts) was “returned to control values”. The “FBXL5 steady state level” value ([3]; control cells) was “not modified”, the “ferritin steady state level” value ([3]; control cells) was “not modified” and the “decrease of membrane TfR1” value (membrane-bound TfR1; [6]) was 15-30%. The “increase of membrane TfR1” value (membrane-bound TfR1; [7]) was 1.1 to 1.3 fold, the “Tf recycling (Tf-Alexa555 signal)” value [4, 6] was “complete rescue” and the Tf recycling ([4]; control cells treated with artesunate) was “slight delay”. For the same molecule, the “cellular iron content relative to initial cellular iron content” value ([5]; FRDA fibroblasts, basal conditions, artesunate 25 μM for 48 h) was 62-79 % of initial cellular iron content, the “decrease of cellular iron content” value ([5]; FRDA fibroblasts, high iron condition (100 μM FAC), 25 μM artesunate for 48 h) was 71-79% and the iron content ([5]; basal conditions, artesunate 25 μM for 48 h) was “light but non-significant increase”. For the same molecule, the iron content ([5]; high iron conditions (100 μM FAC), 25 μM artesunate) was “decreased”, the “iron content of PBMC” value (PBMC (iron content); FRDA PBMCs) was “two-fold decrease” and the “iron content of PBMC” value (PBMC (iron content); control PBMCs) was “two-fold decrease”.
With `CC(C)(COP(=O)(O)OP(=O)(O)OC[C@H]1O[C@@H](n2cnc3c(N)ncnc32)[C@H](O)[C@@H]1OP(=O)(O)O)[C@@H](O)C(=O)NCCC(=O)NCCS` [CoA, [[(2R,3S,4R,5R)-5-(6-aminopurin-9-yl)-4-hydroxy-3-phosphonooxyoxolan-2-yl]methoxy-hydroxyphosphoryl][(3R)-3-hydroxy-2,2-dimethyl-4-oxo-4-[[3-oxo-3-(2-sulfanylethylamino)propyl]amino]butyl]hydrogen phosphate] the “increase of TfR1 palmitoylation” value (TfR1 [1]; FRDA fibroblasts, CoA 25 μM for 72 h) was 2.1 to 3.2 fold, the “steady state level of TfR1” value (TfR1 [2]; FRDA fibroblasts) was “decreased” and the “membrane TfR1 accumulation” value (membrane-bound TfR1; summary statement in discussion, conditions not given) was “reduced”. For the same molecule, the “decrease of cellular iron content” value ([5]; FRDA fibroblasts, high iron conditions (+FAC), CoA 25 μM for 72 h) was 1.6-2.4 fold.
